Data reported in patent publication US20100216747A1, “PREVENTIVE AGENT OR THERAPEUTIC AGENT FOR DISEASE CAUSED BY ABNORMAL BONE METABOLISM” (TEIJIN PHARMA LIMITED, priority 2007, published 2010).
Where two headings read alike, the source gives them in different places.

What was measured:
[1] = tested on: osteoclast-like cells formed from mouse bone marrow-derived cells; test: Bone resorption activity of osteoclast-like cells on ivory section (type I collagen cross-linked C-telopeptide in medium, ELISA); format: cell-based; conditions: Example 4 experiment: Compound A 10^−7 M, risedronic acid 10^−8 M, alone or simultaneously, 9 days on ivory section, vs Comparative Example 4-1, 3 to 4 wells
From the text: Multinuclear osteoclast-like cells were formed from mouse bone marrow-derived cells by collecting bone marrows of the femur and the tibia from a mouse, removing erythrocytes according to the ordinary method, plating the residual components in a 96-well plate containing an ivory section at the density of 4×10^5 cells/well, culturing the cells overnight, then adding a medium containing 1α,25-dihydroxy vitamin D3 (referred to as 1α,25(OH)2D3 hereinbelow) in order to be at 10^−9 M, and culturing the cells in the presence of 1α,25(OH)2D3 for 9 days. An αMEM medium containing 10% fetal calf serum (referred to as 10% FCS-αMEM hereinbelow) was used as a medium. When 1α,25(OH)2D3 was added to the mouse bone marrow-derived cells, each of a solvent alone (Comparative Example 4-1), N-hydroxy-4-{5-[4-(5-isopropyl-2-methyl-1,3-thiazol-4-yl)phenoxy]pentoxy}-benzamidine (described as Compound A in Table 4) alone (Comparative Example 4-2), risedronic acid alone (Comparative Example 4-3), and N-hydroxy-4-{5-[4-(5-isopropyl-2-methyl-1,3-thiazol-4-yl)phenoxy]pentoxy}-benzamidine (described as Compound A in Table 4) and risedronic acid (Example 4) were simultaneously added to the mouse bone marrow-derived cell culture system, and the effects on formation of osteoclast-like cells were evaluated. The following groups were set for the experiment.
For addition of N-hydroxy-4-{5-[4-(5-isopropyl-2-methyl-1,3-thiazol-4-yl)phenoxy]pentoxy}-benzamidine (Compound A), in both the Comparative Examples and Example, N-hydroxy-4-{5-[4-(5-isopropyl-2-methyl-1,3-thiazol-4-yl)phenoxy]pentoxy}-benzamidine (Compound A) was dissolved in dimethylsulfoxide (DMSO) at a concentration of 10^−4 M, and the resultant solution was added to the medium to make 10^−7 M at a 1000-fold dilution. […]
Both in Comparative Examples and Example, the culture medium was collected 9 days after the start of culture, and the quantity of type I collagen cross-linked C-telopeptide in the medium was measured. […]

[2] = tested on: osteoclast-like cells formed from mouse bone marrow-derived cells; test: Formation of osteoclast-like cells (TRAP-positive multinuclear cells) from mouse bone marrow-derived cells cultured with 1α,25(OH)2D3; format: cell-based; conditions: alone or simultaneously, 7 days; for number of osteoclast-like cells formed, taking Comparative Example 1-1 as 100%: Example 1 experiment (FIG. 1): Compound A 10^−7 M; for number of osteoclast-like cells formed, taking Comparative Example 1-1 as 100% / number of osteoclast-like cells formed, taking Comparative Example 2-1 as 100%: 3 wells; for number of osteoclast-like cells formed, taking Comparative Example 2-1 as 100%: Example 2 experiment (FIG. 2): Compound A 10^−6 M; for number of osteoclast-like cells formed, taking Comparative Example 3-1 as 100%: Example 3 experiment (FIG. 3): Compound A 10^−7 M, 4 to 5 wells
From the text: Multinuclear osteoclast-like cells were formed from mouse bone marrow-derived cells by collecting bone marrows of the femur and the tibia from a mouse, removing erythrocytes according to the ordinary method, plating the residual components in a 96-well plate at the density of 4×10^5cells/well, culturing the cells overnight, then adding a medium containing 1α,25-dihydroxy vitamin D3 (referred to as 1═,25(OH)2D3 hereinbelow) in order to be at 10^−9M, and culturing the cells in the presence of 1α,25(OH)2D3 for 7 days. An αMEM medium containing 10% fetal calf serum (referred to as 10% FCS-αMEM hereinbelow) was used as a medium. When 1α,25(OH)2D3 was added to the mouse bone marrow-derived cells, each of a solvent alone (Comparative Example 1-1), N-hydroxy-4-{5-[4-(5-isopropyl-2-methyl-1,3-thiazol-4-yl)phenoxy]pentoxy}-benzamidine (described as Compound A in Figure) alone (Comparative Example 1-2), risedronic acid alone (Comparative Example 1-3), and N-hydroxy-4-{5-[4-(5-isopropyl-2-methyl-1,3-thiazol-4-yl)phenoxy]pentoxy}-benzamidine (described as Compound A in Figure) and risedronic acid simultaneously (Example 1) were added to the mouse bone marrow-derived cell culture system, and the effects on formation of osteoclast-like cells were evaluated. The following groups were set for the experiment.
For addition of N-hydroxy-4-{5-[4-(5-isopropyl-2-methyl-1,3-thiazol-4-yl)phenoxy]pentoxy}-benzamidine (Compound A), in both the Comparative Examples and Example, N-hydroxy-4-{5-[4-(5-isopropyl-2-methyl-1,3-thiazol-4-yl)phenoxy]pentoxy}-benzamidine (Compound A) was dissolved in dimethylsulfoxide (DMSO) at a concentration of 10^−4 M, and the resultant solution was added to the medium to make 10^−7 M at a 1000-fold dilution. For addition of risedronic acid, in both the Comparative Examples and Example, sodium risedronate hydrate was dissolved in phosphate buffered saline (PBS) at a concentration of […], and the resultant solution was added to the medium to make 3×10^−7 M at a 1000-fold dilution. On the third day after addition of the test compound(s) of the respective conditions, the medium was replaced with fresh 10% FCS-αMEM containing the test compound(s) of the respective conditions in both the Comparative Examples and Example.
In both the Comparative Examples and Example, on the 7th day after the start of culture, the medium was removed, the cells were fixed with phosphate buffered formalin and stained by tartrate-resistant acid phosphatase (abbreviated as TRAP hereinbelow), an osteoclast marker, using Sigma Acid Phosphatase, Leukocyte (TRAP) kit (Sigma, No. 386A), and the number of TRAP-positive multinuclear cells having 6 or more cell nuclei was counted as osteoclast-like cells under an optical microscope.
The experiment was conducted in a similar manner to that described in Example 1, except that the concentration of N-hydroxy-4-{5-[4-(5-isopropyl-2-methyl-1,3-thiazol-4-yl)phenoxy]pentoxy}-benzamidine in the medium was set at 10^−6M, and the following groups were set.
The experiment was conducted in a similar manner to that described in Example 1, except that clodronic acid at a concentration of 10^−5 M was allowed to act on the cells in place of risedronic acid at a concentration of 3×10^−7 M in the Comparative Examples and Example, and the following groups were set.

[3] = Mus musculus, Osteoclast-like, 216 h, read-out: Bone resorption inhibitory rate (%)
[4] = Mus musculus, Osteoclast-like, 168 h, Example 1 experiment: Compound A 10^−7 M, risedronic acid 3×10^−7 M, vs Comparative Example 1-1, read-out: Osteoclast-like cell formation inhibition rate (%)
[5] = Mus musculus, Osteoclast-like, 168 h, Example 2 experiment: Compound A 10^−6 M, risedronic acid 3×10^−7 M, vs Comparative Example 2-1, read-out: Osteoclast-like cell formation inhibition rate (%)
[6] = Mus musculus, Osteoclast-like, 168 h, Example 3 experiment: Compound A 10^−7 M, clodronic acid 10^−5 M, vs Comparative Example 3-1, read-out: Osteoclast-like cell formation inhibition rate (%)

SMILES | Bone resorption inhibitory rate (%) ([1]; listed as Comparative Example 4-3) | inhibition at 0.01 µM [1, 3] | number of osteoclast-like cells formed, taking Comparative Example 1-1 as 100% ([2]; risedronic acid 3×10^−7 M) | number of osteoclast-like cells formed, taking Comparative Example 2-1 as 100% ([2]; risedronic acid 3×10^−7 M) | inhibition at 0.3 µM [2, 4] | inhibition at 0.3 µM [2, 5] | inhibition at 0.1 µM [1, 3] | number of osteoclast-like cells formed, taking Comparative Example 3-1 as 100% ([2]; clodronic acid 10^−5 M) | inhibition at 0.1 µM [2, 4] | inhibition at 1 µM [2, 5] | inhibition at 0.1 µM [2, 6] | inhibition at 10 µM [2, 6]
O=P(O)(O)C(O)(Cc1cccnc1)P(=O)(O)O [risedronic acid] | 18.3% | 18.3% | 88.1% | 88.1% | 11.9% | 11.9% | – | – | – | – | – | –
Cc1nc(-c2ccc(OCCCCCOc3ccc(/C(N)=N/O)cc3)cc2)c(C(C)C)s1 [Compound A, N-hydroxy-4-{5-[4-(5-isopropyl-2-methyl-1,3-thiazol-4-yl)phenoxy]pentoxy}-benzamidine] | – | – | 81.3% | 50% | – | – | 13.9% | 95.2% | 18.7% | 50% | 4.8% | –
O=P(O)(O)C(Cl)(Cl)P(=O)(O)O [clodronic acid] | – | – | – | – | – | – | – | 93.9% | – | – | – | 6.1%
